Reference: a melting point compilation (Tetko et al.; mined from patent text by program, amines drawn as free bases though some values may be those of a salt)

Row | Compound | melting point [°C]
1 | CNC(=S)N1CCc2c(ncn2C)C1 | 238
2 | CC(C)C1(C)Cc2cc(O)c(Cl)c(Cl)c2C1=O (stereo not given) | 215
3 | CO[C@@H]1[C@H](O)[C@@H](CO)O[C@H]1n1cnc2c(N[C@H](C)Cc3sccc3Cl)ncnc21 | 75 to 76
4 | NCC(=O)NCC(=O)Nc1ccc([N+](=O)[O-])cc1C(=O)c1ccccc1 | 121 to 123
5 | O=C(NC1CCN(C/C=C\CC(c2ccccc2)c2ccccc2)CC1)c1ccccc1Oc1ccccc1 | 91 to 94
6 | CCOC(=O)C(=O)CC(=O)/C=C/c1ccc(Cl)cc1F | 84 to 85
7 | CC(=O)Nc1ccc(C(=O)Nc2ccccc2NC(=O)CN)cc1 | 215 to 218
8 | CC(C)(C)OC(=O)C(CN(Cc1ccccc1)Cc1ccccc1)CC1(C(=O)NC(Cc2ccc(OC(C)(C)C)cc2)C(=O)OC(C)(C)C)CCCC1 (stereo not given) | 82 to 87
9 | Cc1ccccc1C(=O)Nc1ccc(C(=O)N2CCCC(OCCO)c3cc(Cl)ccc32)cc1 (stereo not given) | 185 to 188
10 | CC1=C(C(=O)c2ccc3c(c2)CCN(C(N)=O)C3)C(C)(C)CC1 | 40.1 to 41.4
11 | Cc1ccccc1C(=O)P1(=O)Oc2ccccc2-c2ccccc21 (stereo not given) | 102 to 104
12 | CC(=O)Oc1cc([N+](=O)[O-])cc([N+](=O)[O-])c1OC(C)=O | 115 to 117
13 | NC(=O)C1(c2c(F)cccc2F)CC1 | 137 to 138
14 | Nc1ccc(NC(=S)NC2CCCCC2)cn1 | 147 to 149
15 | COc1cc(C(C)(C)C(N)=O)cc2c1OC(C)(C)C2 | 112 to 113
16 | CS(=O)(=O)c1ccc(-c2nn(Cc3ccccc3)c(=O)cc2-c2ccccc2)cc1 | 211 to 212
17 | CC(Sc1nc(N)cc(Cl)n1)c1cc2ccoc2cn1 (stereo not given) | 187 to 188
18 | COCCOc1cc(CCC(=O)O)n(Cc2ccc(Cl)cc2Cl)n1 | 111 to 113
19 | C=Cc1ccc(C(=O)Oc2ccc(C(=O)O)cc2)cc1C12CC3CC(CC(C3)C1)C2 | 86 to 87

Row | Compound | melting point [°C]
20 | CN(CC(=O)O)c1cc(Br)ccc1[N+](=O)[O-] | 152 to 155
21 | CN1CCCC(c2cccc3ccc(N)cc23)C1 (stereo not given) | 117 to 120
22 | O=C(Nc1ccccn1)C(CC1CCCC1)c1ccc(C(F)(F)F)c(F)c1 (stereo not given) | 40 to 44
23 | O=C1NCCNCCNCCNC(=O)c2cccc1n2 | 224 to 227
24 | Nc1nc(/C(=N/OCC(=O)OC(c2ccccc2)c2ccccc2)C(=O)Sc2nc3ccccc3s2)cs1 | 152
25 | Nc1cc(-c2ccc(Cl)cc2)on1 | 141 to 143
26 | CCC(=NNc1ccccc1)c1cc(Cl)ccc1NS(=O)(=O)C(F)(F)F | 128 to 129
27 | CC(CSc1cc(C(C)(C)C)c(O)c(C(C)(C)C)c1)N(O)C(N)=O (stereo not given) | 65 to 66
28 | Cc1nc2cc(NC(=O)c3cc4cc(F)ncc4n3Cc3cccc(F)c3)ccc2s1 | 193 to 195
29 | O=c1oc2cc(O)ccc2c2c1CCCC2 | 200 to 202
30 | CC(=O)c1c(-c2ccncc2)[nH]c(-c2ccncc2)c1C(F)(F)F | 250 to 255
31 | C=CCN(c1ncnc2c1ncn2C1OC(CO)C(O)C1O)C1CCCCC1 (stereo not given) | 123 to 125
32 | N#Cc1ccc(C(=O)O)c(Cl)c1 | 154 to 158
33 | Cc1c(NC(=O)c2ccc(OC[C@@H]3CCCO3)cc2)ccc2cc(CNCC3(C)COC3)cnc12 | 117 to 119
34 | O=[N+]([O-])c1cc(Cl)c2c(c1)C(F)(F)C(F)(F)S2 | 61.5 to 62
35 | CCSc1ccc2c(c1)CCN2C(=O)Nc1cccnc1 | 150 to 151
36 | CS(=O)(=O)Nc1cccc(Nc2nc(OC3CCOC3)c3nc[nH]c3n2)c1 (stereo not given) | 255 to 257
37 | NC(=O)c1nc(-c2cccnc2)nc2c1[nH]c(=O)n2Cc1ccccc1 | 334 to 335

The next lines start with the values.

Row | melting point [°C] | Compound
38 | 58 to 60 | COc1cccc(COCc2cccc(OC)c2OC)c1OC
39 | 45 to 46 | Cc1cccc(C(=O)OC2CCN(Cc3ccccc3)CC2)c1
40 | 233 to 235 | COc1ccc(-c2c(Cl)c(Cn3cnc4ccccc43)nc3sc4c(c23)CCS(=O)C4)cc1 (stereo not given)
41 | 259 to 260 | CS(=O)(=O)c1ccc(Oc2cc(OCc3cccc(Cl)n3)c3[nH]c(C(N)=O)cc3c2)cc1
42 | 104 to 105 | CN(C)C(=O)Nc1cccc(C(=O)c2ccccc2)c1
43 | 208 to 210 | CCn1c(=O)n(-c2ccc(Oc3nc4ccccc4n3C)cc2)c2ncc(Cl)cc21
44 | 217 to 218 | O=c1[nH]c(=O)n(Cc2ccc(Cl)cc2)c2ccccc12
45 | 125 to 127 | CN(C)n1c(NN)nc2ccccc2c1=O
46 | 195 to 198 | Cc1nc2cccc(OCC(C)(C)NC(=O)c3ccncc3)c2c(N)c1C(=O)O
47 | 159 to 160 | Clc1ccc2nc(Cl)nc(-c3ccccc3)c2c1
48 | 78 to 83 | Cc1noc(NS(=O)(=O)c2ccccc2-c2ccc(CC(C)C)cc2CNC=O)c1C
49 | 102 to 104 | COc1ccccc1CP(CCP(Cc1ccccc1OC)c1ccccc1)c1ccccc1 (stereo not given)
50 | 153 to 154 | Cc1cc(C)c2ncc(C#N)c(-c3ccccc3Cl)c2c1
51 | 305 to 306 | Oc1ccc(-c2cc3ccc(O)cc3s2)cc1
52 | > 260 | CC(=O)Nc1nc(NC(C)=O)nc(-c2ccc(S(=O)(=O)c3ccccc3)cc2)n1
53 | 156 to 157 | CCn1c(=O)n(OCc2ccccc2)c(=O)c2cc(F)c(Cl)nc21
54 | 190 | CC(C)(C)OC(=O)CCP(Br)(c1ccccc1)(c1ccccc1)c1ccccc1

Row | melting point [°C] | Compound
55 | 105 to 106 | O=C(O)c1ccccc1OCCCCCOc1ccccc1C(=O)O
56 | 163 to 164 | CCOC(=O)c1c(Cn2ccnc2CC)nc2cc(OC)c(OC)cc2c1-c1ccc(OC)c(OC)c1
57 | 122 to 124 | CC(C)c1csc(/C=C/c2cccc(NC(=O)Cc3cccc(CC(=O)O)c3)c2)n1
58 | 79 to 80 | CCc1nc(COc2ccc([N+](=O)[O-])cc2)cs1
59 | 207 | CCC1c2cc(F)ccc2-c2cc(-c3ccccc3)ccc2N1S(=O)(=O)c1ccc(O)cc1 (stereo not given)
60 | 75 to 76 | CC(C)(C)c1ccc(C(=O)Cc2ccncc2)cc1
61 | 111 to 113 | CCCCCc1c(-c2ccc3c(Br)c(OCC#N)ccc3c2)oc2ccccc12
62 | 122 to 123 | CCCCCCCCn1nc(C)c(N=Nc2c(O)cc(S(=O)(=O)N(CC)CC)c3ccccc23)c1O
63 | 150 | COCCN(C1CCS(=O)(=O)C1)S(=O)(=O)c1ccc(Nc2nccc(Nc3ccc(F)cc3)n2)cc1 (stereo not given)
64 | 179 to 183 | COC(=O)C1(NC(=O)Cc2c(C)ccc(-c3ccc(Cl)cc3)c2C)CCC(F)(F)CC1
65 | 165 | Cc1ccc(C(O)(c2ccc3c(c2)c(-c2cccc(Cl)c2)nc2nnnn23)c2cncn2C)cc1 (stereo not given)
66 | 176 to 178 | CCCn1c(COCC)nc2c(N)nc3ccc(OC4CCNCC4)cc3c21
67 | 64 to 65 | Nc1ccc(Cl)cc1Cc1ccccc1Cl
68 | 106 to 109 | COc1cc(-c2ccc(C)cc2)c(C(C)=NOCc2ccc([N+](=O)[O-])cc2)cc1O
69 | 103 to 106 | CCCC(O)c1cccc(NC(=O)OCc2ccccc2)c1 (stereo not given)
70 | 173 to 176 | CC(=O)NNC(=O)N(O)C1c2ccccc2Oc2ccccc21
